Test results as given in article PMC11491004, “CHF6523 data suggest that the phosphoinositide 3-kinase delta isoform is not a suitable target for the management of COPD” (Respiratory Research, 2024).

Tests used:
[1] = tested on: target biomarkers in sputum; test: Target biomarkers of inflammation in induced sputum; assay type: in vivo, human; settings: p < 0.05; with the exception of IL-5
Procedure: All assessment timings were based on the morning dose. Pre-dose on Days 1 and 28 of each treatment period, blood samples were taken for pharmacokinetic analyses, followed by forced oscillation (including slow vital capacity manoeuvres for inspiratory capacity [IC] and vital capacity [VC]), spirometry (forced expiratory volume in 1 s [FEV1] and forced vital capacity [FVC]), and the COPD Assessment Test (CAT). Blood samples were also taken up to 12 h post-dose on Days 1 and 28 for pharmacokinetic analyses, with blood samples for biomarker assessment pre-dose on Day 1 and 2 h post-dose on Day 28, and spirometry pre-dose on Days 20 and 24. […]
Fold-change from baseline in cell counts, target biomarkers in sputum and blood, and PIP3 were log-transformed and analysed using an analysis of covariance (ANCOVA) model, with treatment, patient, and period as fixed effects, and baseline value as covariate. Changes from baseline in spirometry, forced oscillation and CAT endpoints were analysed using a similar ANCOVA model, but without log transformation. Rescue medication data were analysed using an analysis of variance model, including treatment, period and patient as fixed effects. […]

[2] = Spirometry (pre-dose FEV1 and FVC); assay type: in vivo, human
Procedure: (§1) All assessment timings were based on the morning dose. Pre-dose on Days 1 and 28 of each treatment period, blood samples were taken for pharmacokinetic analyses, followed by forced oscillation (including slow vital capacity manoeuvres for inspiratory capacity [IC] and vital capacity [VC]), spirometry (forced expiratory volume in 1 s [FEV1] and forced vital capacity [FVC]), and the COPD Assessment Test (CAT). Blood samples were also taken up to 12 h post-dose on Days 1 and 28 for pharmacokinetic analyses, with blood samples for biomarker assessment pre-dose on Day 1 and 2 h post-dose on Day 28, and spirometry pre-dose on Days 20 and 24. Sputum was induced prior to each treatment period for baseline determination of biomarkers, and post-dose on Day 20 for collection of phosphatidylinositol (3,4,5)-trisphosphate (PIP3), and on Days 24 and 28 for collection of biomarkers.
(§2) Fold-change from baseline in cell counts, target biomarkers in sputum and blood, and PIP3 were log-transformed and analysed using an analysis of covariance (ANCOVA) model, with treatment, patient, and period as fixed effects, and baseline value as covariate. Changes from baseline in spirometry, forced oscillation and CAT endpoints were analysed using a similar ANCOVA model, but without log transformation. Rescue medication data were analysed using an analysis of variance model, including treatment, period and patient as fixed effects. Other data, including the proportion of days on which patients coughed and the cough VAS results, are presented descriptively only. Further details, including the transcriptomics, mass-spectrometry and Olink proteomics, bioinformatics and multi-omic data integration are in the supplement.

[3] = Forced oscillation and slow vital capacity manoeuvres; assay type: in vivo, human; settings: Day 28
Procedure: as §1, §2
The Resmon PRO FULL device (MGC Diagnostics/Medisoft, St Paul, MN, USA) was used to evaluate the forced oscillometry endpoints. Patients in a sitting position and with their nose clipped supported their cheeks to reduce upper airway shunting while small amplitude pressure stimuli were applied during tidal breathing, with each manoeuvre performed in triplicate. The response of the respiratory system to this stimulation was used to derive respiratory mechanical impedance (Zrs), which comprises resistance (Rrs) and reactance (Xrs). In addition, the small amplitude pressure stimuli was also applied during execution of an expiratory slow vital capacity manoeuvre (SVC) to record inspiratory capacity (IC) and vital capacity (VC).
Central and peripheral airway mechanics were measured using a multi frequency stimulating waveform at 5, 11, and 19 Hz, to derive the following: […]

[4] = in vivo
Procedure: Safety and tolerability were evaluated throughout the study in terms of the occurrence of adverse events, blood chemistry, haematology and urinalysis, vital signs, and 12-lead electrocardiograms. […] Throughout the study, patients were permitted to use salbutamol as rescue medication, but not within 6 h prior to any spirometry assessment – any rescue medication intake was also captured in the daily diary.
The safety set, used in the analysis of all safety variables, was all randomised patients who received at least one dose of study drug. […] Given the cross-over design, the inclusion of patients in the analysis sets was defined on a per-period basis.

## C[C@@H](c1oc(=O)c2ccccc2c1-c1cccc(CN2CCN(C)CC2)c1)n1nc(-c2cncc(O)c2)c2c(N)ncnc21 [CHF6523]
[1]
  CHF6523–placebo differences in target biomarkers in sputum: no statistically significant
[2]; Day 20
  Change from baseline in pre-dose FEV1: CHF6523–placebo difference (95% CI): −79 (−149, −9) mL
  Change from baseline in pre-dose FVC: CHF6523–placebo difference (95% CI): −38 (−191, 116) mL
[2]; Day 24
  Change from baseline in pre-dose FEV1: CHF6523–placebo difference (95% CI): −79 (−141, −17) mL
  Change from baseline in pre-dose FVC: CHF6523–placebo difference (95% CI): −25 (−170, 120) mL
[2]; Day 28
  Change from baseline in pre-dose FEV1: CHF6523–placebo difference (95% CI): −146 (−242, −50) mL
[3]
  Breaths where expiratory flow limitation was present, adjusted mean change from baseline (95% CI): 4.960 (–2.008, 11.928) %
  Breaths where expiratory flow limitation was present, adjusted mean difference CHF6523 vs placebo (95% CI): 6.482 (–3.182, 16.145); p=0.179%
  Inspiratory capacity, adjusted mean change from baseline (95% CI): –0.175 (–0.264, –0.085) (N=26) L
  Inspiratory capacity, adjusted mean difference CHF6523 vs placebo (95% CI): –0.062 (–0.191, 0.066); p=0.320 L
  Mean inspiratory flow, adjusted mean change from baseline (95% CI): 0.023 (0.006, 0.041) L/sec
  Reactance at 5 Hz, expiratory, adjusted mean change from baseline (95% CI): –0.336 (–0.801, 0.130) cmH2O/L/sec
  Reactance at 5 Hz, expiratory, adjusted mean difference CHF6523 vs placebo (95% CI): –0.284 (–0.919, 0.351); p=0.365 cmH2O/L/sec
  Reactance at 5 Hz, inspiratory, adjusted mean change from baseline (95% CI): –0.119 (–0.307, 0.068) cmH2O/L/sec
  Reactance at 5 Hz, inspiratory, adjusted mean difference CHF6523 vs placebo (95% CI): –0.141 (–0.399, 0.117); p=0.272 cmH2O/L/sec
  Reactance at 5 Hz, total, adjusted mean change from baseline (95% CI): –0.263 (–0.623, 0.097) cmH2O/L/sec
  Reactance at 5 Hz, total, adjusted mean difference CHF6523 vs placebo (95% CI): –0.237 (–0.729, 0.256); p=0.332 cmH2O/L/sec
  Reactance at 19 Hz, expiratory, adjusted mean change from baseline (95% CI): –0.025 (–0.226, 0.177) cmH2O/L/sec
  Reactance at 19 Hz, expiratory, adjusted mean difference CHF6523 vs placebo (95% CI): 0.079 (–0.198, 0.357); p=0.563 cmH2O/L/sec
  Reactance at 19 Hz, inspiratory, adjusted mean change from baseline (95% CI): –0.113 (–0.257, 0.031) cmH2O/L/sec
  Reactance at 19 Hz, inspiratory, adjusted mean difference CHF6523 vs placebo (95% CI): –0.072 (–0.270, 0.127); p=0.464 cmH2O/L/sec
  Reactance at 19 Hz, total, adjusted mean change from baseline (95% CI): –0.058 (–0.229, 0.112) cmH2O/L/sec
  Reactance at 19 Hz, total, adjusted mean difference CHF6523 vs placebo (95% CI): 0.027 (–0.208, 0.262); p=0.814 cmH2O/L/sec
  Resistance at 5 Hz minus resistance at 19 Hz, expiratory, adjusted mean change from baseline (95% CI): 0.112 (–0.080, 0.305) cmH2O/L/sec
  Resistance at 5 Hz minus resistance at 19 Hz, expiratory, adjusted mean difference CHF6523 vs placebo (95% CI): –0.112 (–0.377, 0.153); p=0.392 cmH2O/L/sec
  Resistance at 5 Hz minus resistance at 19 Hz, inspiratory, adjusted mean change from baseline (95% CI): 0.198 (0.075, 0.321) cmH2O/L/sec
  Resistance at 5 Hz minus resistance at 19 Hz, inspiratory, adjusted mean difference CHF6523 vs placebo (95% CI): 0.147 (–0.022, 0.317); p=0.085 cmH2O/L/sec
  Resistance at 5 Hz minus resistance at 19 Hz, total, adjusted mean change from baseline (95% CI): 0.158 (0.018, 0.299) cmH2O/L/sec
  Resistance at 5 Hz minus resistance at 19 Hz, total, adjusted mean difference CHF6523 vs placebo (95% CI): –0.008 (–0.203, 0.186); p=0.929 cmH2O/L/sec
  Resistance at 5 Hz, expiratory, adjusted mean change from baseline (95% CI): 0.112 (–0.149, 0.373) cmH2O/L/sec
  Resistance at 5 Hz, expiratory, adjusted mean difference CHF6523 vs placebo (95% CI): –0.118 (–0.485, 0.248); p=0.513 cmH2O/L/sec
  Resistance at 5 Hz, inspiratory, adjusted mean change from baseline (95% CI): 0.216 (0.066, 0.366) cmH2O/L/sec
  Resistance at 5 Hz, inspiratory, adjusted mean difference CHF6523 vs placebo (95% CI): 0.057 (–0.150, 0.264); p=0.574 cmH2O/L/sec
  Resistance at 5 Hz, total, adjusted mean change from baseline (95% CI): 0.172 (–0.013, 0.356) cmH2O/L/sec
  Resistance at 5 Hz, total, adjusted mean difference CHF6523 vs placebo (95% CI): –0.051 (–0.309, 0.207); p=0.686 cmH2O/L/sec
  Resistance at 19 Hz, expiratory, adjusted mean change from baseline (95% CI): –0.002 (–0.179, 0.176) cmH2O/L/sec
  Resistance at 19 Hz, expiratory, adjusted mean difference CHF6523 vs placebo (95% CI): –0.009 (–0.261, 0.242); p=0.939 cmH2O/L/sec
  Resistance at 19 Hz, inspiratory, adjusted mean change from baseline (95% CI): 0.021 (–0.094, 0.136) cmH2O/L/sec
  Resistance at 19 Hz, inspiratory, adjusted mean difference CHF6523 vs placebo (95% CI): –0.086 (–0.245, 0.072); p=0.272 cmH2O/L/sec
  Resistance at 19 Hz, total, adjusted mean change from baseline (95% CI): 0.016 (–0.125, 0.156) cmH2O/L/sec
  Resistance at 19 Hz, total, adjusted mean difference CHF6523 vs placebo (95% CI): –0.040 (–0.236, 0.157); p=0.683 cmH2O/L/sec
  Resonance frequency, adjusted mean change from baseline (95% CI): 0.167 (–0.960, 1.293) Hz
  Resonance frequency, adjusted mean difference CHF6523 vs placebo (95% CI): 0.106 (–1.434, 1.646); 0.888 Hz
  Respiratory rate, adjusted mean change from baseline (95% CI): 0.268 (–0.359, 0.895) breaths/min
  Respiratory rate, adjusted mean difference CHF6523 vs placebo (95% CI): 0.784 (–0.078, 1.646); 0.073 breaths/min
  Tidal expiratory flow limitation, adjusted mean change from baseline (95% CI): 0.214 (–0.130, 0.557) cmH2O/L/sec
  Tidal expiratory flow limitation, adjusted mean difference CHF6523 vs placebo (95% CI): 0.111 (–0.359, 0.582); p=0.630 cmH2O/L/sec
  Tidal volume, adjusted mean change from baseline (95% CI): 0.003 (–0.029, 0.036) L
  Tidal volume, adjusted mean difference CHF6523 vs placebo (95% CI): 0.011 (–0.034, 0.056); p=0.620 L
  Vital capacity, adjusted mean change from baseline (95% CI): –0.083 (–0.243, 0.076) (N=26) L
  Vital capacity, adjusted mean difference CHF6523 vs placebo (95% CI): –0.018 (–0.243, 0.207); p=0.871 L
[3]; p=0.015
  CHF6523–placebo difference in inspiratory flow: 29 mL/s
  Mean inspiratory flow, adjusted mean difference CHF6523 vs placebo (95% CI): 0.029 (0.006, 0.052); p=0.015 L/sec
[4]
  Adverse events leading to study discontinuation: 6 (14.3%) Patients (%)
  Adverse events leading to study discontinuation: Cough: 5 (11.9%) Patients (%)
  Adverse events: Abnormal product taste: 14 (33.3%) Patients (%)
  Adverse events: COPD exacerbation: 4 (9.5%) Patients (%)
  Adverse events: Chest discomfort: 9 (21.4%) Patients (%)
  Adverse events: Dyspnoea: 9 (21.4%) Patients (%)
  Adverse events: Headache: 5 (11.9%) Patients (%)
  Adverse events: Increased sputum: 5 (11.9%) Patients (%)
  CHF6523–placebo differences in the other safety evaluations: no clinically relevant
  Serious adverse events: 2 (4.8%) Patients (%)
  Serious treatment-related adverse events: 0 Patients (%)
  Severe adverse events: 11 (26.2%) Patients (%)
  Severe adverse events: Cough: 7 (16.7%) Patients (%)
  Treatment-related adverse events: 40 (95.2%) Patients (%)
  Treatment-related adverse events: Chest discomfort: 9 (21.4%) Patients (%)
  Treatment-related adverse events: Cough: 40 (95.2%) Patients (%)
  Treatment-related adverse events: Dyspnoea: 9 (21.4%) Patients (%)
  Treatment-related adverse events: Headache: 3 (7.1%) Patients (%)
  Treatment-related adverse events: Increased sputum: 5 (11.9%) Patients (%)
  Treatment-related adverse events: Product taste abnormal: 14 (33.3%) Patients (%)
